Measured values taken from patent publication US8993526B2, “Method for counteracting the perception of sweat malodour by decreasing the function of carboxylic acid-binding olfactory receptors” (ChemCom S.A., priority 2011, dated 2015).

What was measured:
Type in all cases: cell-based
Settings in all cases: tested at 1 mM, 316 μM, 100 μM; hit = luciferase activity >= median + 2 standard deviations
[1] = biological target: T1, OR51I2 (Homo sapiens, UniProt Q9H344, T134A); experiment: CRE-luciferase reporter assay, OR51I2 in HEK293T-RTP1A1/RTP2 cells
T1 construct: expressed in transfected cells; host or cells: HEK293T-RTP1A1/RTP2
T1 sequence (Q9H344 1-312 T134A): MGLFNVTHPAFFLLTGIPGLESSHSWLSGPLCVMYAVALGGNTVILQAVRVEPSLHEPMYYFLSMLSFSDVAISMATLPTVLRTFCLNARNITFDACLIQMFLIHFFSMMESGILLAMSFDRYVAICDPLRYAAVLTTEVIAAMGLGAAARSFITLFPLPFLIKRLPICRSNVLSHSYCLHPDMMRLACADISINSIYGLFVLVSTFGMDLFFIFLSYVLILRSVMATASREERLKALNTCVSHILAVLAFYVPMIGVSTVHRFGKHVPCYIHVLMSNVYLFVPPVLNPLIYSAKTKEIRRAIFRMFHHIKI
Experimental: (§1) Cells were maintained in minimal essential medium (EMEM, Lonza) containing 10% fetal bovine serum (M10). HEK293T-RTP1A1/RTP2 cells were generated by transfecting HEK293T with an expression vector containing the sequences of the chaperone proteins RTP1A1 and RTP2 and a resistance gene to puromycin, using Lipofectamine 2000. A recombinant cell population was selected by adding 10 μg/ml of puromycin into the culture medium. Monoclonal populations were further obtained by limit dilution procedure. Briefly, a cell suspension was diluted to contain 1 cell per ml and this dilution was dispatched in poly-D-lysine-coated 96 wells plates (200 μl of dilution per well). After 5 days of culture, the presence and number of cell colonies per well was checked under a phase contrast microscopic. After 5 additional days of culture, wells containing a single colony were harvested and each collected population was amplified independently.
(§2) For screening experiments, stock solutions of odorant molecules were diluted in EMEM disposed in 96-well plates. Plates containing the tested molecules (1 molecule/well) at a concentration of 2 mM, at a concentration of 632 μM and at a concentration of 200 μM were prepared.
(§3) For concentration-response analysis, serial dilutions of the tested molecules were prepared from stock solutions in EMEM plated into 96-well plates.
(§4) For the initial deorphanisation screening and dose-response analysis, a Luciferase-based gene reporter assay (Promega, Leiden, The Nederlands) was used as described in Saito et al. (2004). Briefly, cells were platted on poly-D-lysine-coated 96-well plates (BD Bioscience, Erembodegem-Dorp, Belgium) and transfected with a plasmid containing the CRE-luciferase and a plasmid containing the olfactory receptor. Sixteen hours after transfection, the culture medium was replaced by serum-free EMEM containing the tested ligand at a determined concentration. After four hours of incubation at 37° C. degree, cells were lysed and processed for luminescence measurement according to the manufacturer's protocols. Luminescene emission was recorded on a Spectra Max M5 reader (Molecular Devices, Sunnyvale, Calif.). Results were expressed as percentage of the response induced by 10 μM of the adenylate cyclase activator Forskolin.
(§5) Each molecule was tested at 3 different concentrations (1 mM, 316 μM, 100 μM). The different molecules of the tested libraries were disposed at the same concentration into 96 well plates (1 well/molecule) containing cells expressing the receptor of interest. The activity of the tested molecules was measured using the lucifierase activity as explained above. The median luciferase activity induced by the tested molecules and the associated standard deviation were determined. Putatively active molecules (hits) were defined as molecules inducing a luciferase activity higher or equal to the median+2 standard deviations.
(§6) The hits were validated by concentration-response analysis. Semi-logarithmic serial dilutions of hit molecules, from 1 mM to 316 nM, were tested on the responding ORs using the luciferase assay as described above.

[2] = biological target: T2, OR52B2 (Homo sapiens, UniProt Q96RD2); experiment: CRE-luciferase reporter assay, OR52B2 in HEK293T-RTP1A1/RTP2 cells
T2 construct: expressed in transfected cells; host or cells: HEK293T-RTP1A1/RTP2
T2 sequence (Q96RD2 1-323): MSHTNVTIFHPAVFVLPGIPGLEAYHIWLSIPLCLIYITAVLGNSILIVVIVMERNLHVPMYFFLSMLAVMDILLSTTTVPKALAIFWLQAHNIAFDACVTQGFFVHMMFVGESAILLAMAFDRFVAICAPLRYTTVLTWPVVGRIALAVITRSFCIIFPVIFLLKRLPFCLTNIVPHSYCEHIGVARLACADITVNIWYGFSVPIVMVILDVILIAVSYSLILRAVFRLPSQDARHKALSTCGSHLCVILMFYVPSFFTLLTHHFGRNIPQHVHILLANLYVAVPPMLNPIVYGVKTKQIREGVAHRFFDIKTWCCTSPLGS
Experimental: as §1, §2, §3, §4, §5, §6

[3] = biological target: T3, OR56A5 (Homo sapiens, UniProt P0C7T3, R311K/V104M); experiment: CRE-luciferase reporter assay, OR56A5 in HEK293T-RTP1A1/RTP2 cells
T3 construct: expressed in transfected cells; host or cells: HEK293T-RTP1A1/RTP2
T3 sequence (P0C7T3 1-313 V104M/R311K): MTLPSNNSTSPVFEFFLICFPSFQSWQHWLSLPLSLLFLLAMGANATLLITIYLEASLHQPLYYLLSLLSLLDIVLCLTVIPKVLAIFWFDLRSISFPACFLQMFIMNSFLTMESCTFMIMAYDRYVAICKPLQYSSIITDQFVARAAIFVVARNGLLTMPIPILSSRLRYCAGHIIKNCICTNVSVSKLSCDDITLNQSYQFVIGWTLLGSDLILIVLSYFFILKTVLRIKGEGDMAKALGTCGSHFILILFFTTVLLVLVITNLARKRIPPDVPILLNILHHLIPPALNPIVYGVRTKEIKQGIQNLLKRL
Experimental: as §1, §2, §3, §4, §5, §6

[4] = biological target: T4, OR52A5 (Homo sapiens, UniProt Q9H2C5); experiment: CRE-luciferase reporter assay, OR52A5 in HEK293T-RTP1A1/RTP2 cells
T4 construct: expressed in transfected cells; host or cells: HEK293T-RTP1A1/RTP2
T4 sequence (Q9H2C5 1-314 limits assumed): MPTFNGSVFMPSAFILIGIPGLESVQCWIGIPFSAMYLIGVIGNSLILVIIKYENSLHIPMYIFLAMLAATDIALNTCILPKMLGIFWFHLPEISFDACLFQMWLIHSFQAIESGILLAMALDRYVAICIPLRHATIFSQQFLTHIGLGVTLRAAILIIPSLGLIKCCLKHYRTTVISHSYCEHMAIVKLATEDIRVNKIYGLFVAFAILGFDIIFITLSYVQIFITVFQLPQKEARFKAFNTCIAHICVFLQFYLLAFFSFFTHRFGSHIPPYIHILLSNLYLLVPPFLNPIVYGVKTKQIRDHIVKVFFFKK
Experimental: as §1, with “After 5 days of culture, the presence and number of cell colonies per well was checked under a phase contrast microscopic. After 5 additional days of culture, wells containing a single colony were harvested and each collected population was amplified independently.” left out
as §4, with “Briefly, cells were platted on poly-D-lysine-coated 96-well plates (BD Bioscience, Erembodegem-Dorp, Belgium) and transfected with a plasmid containing the CRE-luciferase and a plasmid containing the olfactory receptor.” left out, “Forskolin. […]” for “Forskolin.”

[5] = biological target: T5, OR52E8 (Homo sapiens, UniProt Q6IFG1); experiment: CRE-luciferase reporter assay, OR52E8 in HEK293T-RTP1A1/RTP2 cells
T5 construct: expressed in transfected cells; host or cells: HEK293T-RTP1A1/RTP2
T5 sequence (Q6IFG1 with tags, fused parts or gaps): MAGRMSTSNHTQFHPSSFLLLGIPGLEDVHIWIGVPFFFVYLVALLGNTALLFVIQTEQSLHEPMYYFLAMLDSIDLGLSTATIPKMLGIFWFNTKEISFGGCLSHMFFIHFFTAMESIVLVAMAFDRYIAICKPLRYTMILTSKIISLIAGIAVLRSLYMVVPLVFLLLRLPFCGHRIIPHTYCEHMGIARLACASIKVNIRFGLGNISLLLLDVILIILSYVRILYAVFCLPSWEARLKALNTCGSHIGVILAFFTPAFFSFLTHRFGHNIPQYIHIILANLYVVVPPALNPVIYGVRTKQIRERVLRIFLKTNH
Experimental: as §1, with “After 5 days of culture, the presence and number of cell colonies per well was checked under a phase contrast microscopic. After 5 additional days of culture, wells containing a single colony were harvested and each collected population was amplified independently.” left out
as §4, with “Briefly, cells were platted on poly-D-lysine-coated 96-well plates (BD Bioscience, Erembodegem-Dorp, Belgium) and transfected with a plasmid containing the CRE-luciferase and a plasmid containing the olfactory receptor.” left out, “Forskolin. […]” for “Forskolin.”

[6] = biological target: T6, OR52E1 (Homo sapiens, UniProt Q8NGJ3, F254L/Y278C); experiment: CRE-luciferase reporter assay, OR52E1 in HEK293T-RTP1A1/RTP2 cells
T6 construct: expressed in transfected cells; host or cells: HEK293T-RTP1A1/RTP2
T6 sequence (Q8NGJ3 whole entry F254L/Y278C): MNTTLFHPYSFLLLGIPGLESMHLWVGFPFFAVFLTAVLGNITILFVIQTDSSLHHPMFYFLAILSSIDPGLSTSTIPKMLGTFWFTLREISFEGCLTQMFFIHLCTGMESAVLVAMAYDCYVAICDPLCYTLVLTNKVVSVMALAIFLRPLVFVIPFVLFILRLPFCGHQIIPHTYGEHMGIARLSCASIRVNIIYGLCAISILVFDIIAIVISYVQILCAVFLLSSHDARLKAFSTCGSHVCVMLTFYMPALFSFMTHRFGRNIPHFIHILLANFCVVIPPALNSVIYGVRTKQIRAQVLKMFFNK
Experimental: as §1, with “independently. For screening experiments, stock solutions of odorant molecules were diluted in EMEM disposed in 96-well plates. Plates containing the tested molecules (1 molecule/well) at a concentration of 2 mM, at a concentration of 632 μM and at a concentration of 200 μM were prepared. For concentration-response analysis, serial dilutions of the tested molecules were prepared from stock solutions in EMEM plated into 96-well plates. […]” for “independently.”

[7] = biological target: T7, OR52L1 (Homo sapiens, UniProt Q8NGH7, R140C/S130L); experiment: CRE-luciferase reporter assay, OR52L1 in HEK293T-RTP1A1/RTP2 cells
T7 construct: expressed in transfected cells; host or cells: HEK293T-RTP1A1/RTP2
T7 sequence (Q8NGH7 1-329 S130L/R140C): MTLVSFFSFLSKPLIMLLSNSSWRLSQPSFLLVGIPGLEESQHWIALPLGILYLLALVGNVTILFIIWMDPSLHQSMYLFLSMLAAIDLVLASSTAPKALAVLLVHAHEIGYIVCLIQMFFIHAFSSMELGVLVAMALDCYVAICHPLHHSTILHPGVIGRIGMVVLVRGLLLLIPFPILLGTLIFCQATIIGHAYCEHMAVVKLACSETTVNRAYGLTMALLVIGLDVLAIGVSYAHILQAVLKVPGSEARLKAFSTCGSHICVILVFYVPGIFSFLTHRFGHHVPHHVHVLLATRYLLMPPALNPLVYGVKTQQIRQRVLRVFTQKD
Experimental: as §1, with “independently. For screening experiments, stock solutions of odorant molecules were diluted in EMEM disposed in 96-well plates. Plates containing the tested molecules (1 molecule/well) at a concentration of 2 mM, at a concentration of 632 μM and at a concentration of 200 μM were prepared. For concentration-response analysis, serial dilutions of the tested molecules were prepared from stock solutions in EMEM plated into 96-well plates. […]” for “independently.”

| activation of OR51I2 (hit in luciferase assay) [1] | activation of OR56A5 (hit in luciferase assay) [3] | Structure (SMILES) | activation of OR52B2 (hit in luciferase assay) [2] | further results |
| --- | --- | --- | --- | --- |
| activation |  | CC(C)CC(=O)O [isovaleric acid] |  |  |
|  | activation | CCCCCC(C)C(=O)O (stereo not shown) [2-methylheptanoic acid] |  |  |
|  |  | CCCCC(CC)CCC(=O)O (stereo not shown) [4-ethyloctanoic acid] |  | activation of OR52A5 (hit in luciferase assay) [4]: activation |
|  | activation | CCCCCCCCCCC(=O)O [undecanoic acid] | activation |  |
|  |  | CCCC(C)(O)CC(=O)O (stereo not shown) [3-hydroxy-3-methylhexanoic acid] |  | activation of OR52E8 (hit in luciferase assay) [5]: activation |
| activation |  | CCCC(C)CC(=O)O (stereo not shown) [3-methylhexanoic acid] |  |  |
| activation |  | CCCC(=O)O [butanoic acid] |  | activation of OR52E1 (hit in luciferase assay) [6]: activation |
| activation |  | CCCCC(C)C(=O)O (stereo not shown) [2-methylhexanoic acid] |  |  |
|  | activation | CCCCCCC(=O)O [heptanoic acid] | activation |  |
| activation |  | CCCCC(=O)O [pentanoic acid] |  | activation of OR52L1 (hit in luciferase assay) [7]: activation |
|  | activation | CCCCCCCCCC(=O)O [decanoic acid] | activation |  |

| Structure (SMILES) | activation of OR51I2 (hit in luciferase assay) [1] | activation of OR56A5 (hit in luciferase assay) [3] | activation of OR52B2 (hit in luciferase assay) [2] | further results |
| --- | --- | --- | --- | --- |
| O=C(O)c1ccccc1 [benzoic acid] | activation |  |  |  |
| CCCCCC(=O)O [hexanoic acid] | activation | activation | activation |  |
| CCCCCCCC(=O)O [octanoic acid] |  | activation | activation |  |
| CCCCCCCCC(=O)O [nonanoic acid] |  | activation | activation |  |
| CCC/C(C)=C/C(=O)O [(E)-3-methyl-2-hexanoic acid] | activation |  |  |  |
